{
  "source": "patent US12286632B2",
  "about": "“Rationally-designed synthetic peptide shuttle agents for delivering polypeptide cargos from an extracellular space to the cytosol and/or nucleus of a target eukaryotic cell, uses thereof, methods and kits relating to same” (Feldan Bio Inc., priority 2016, dated 2025)",
  "key": {"THP-1 cells": {"system": "THP-1 cells", "assay": "HOXB4-WT transduction: target gene mRNA by real-time PCR (Fold over control) and total RNA (ng/μL) as marker for cell viability", "assay_type": "cell-based, human", "conditions": "THP-1 cells; for Total RNA in ng/μL (mean ± St. Dev): peptide alone 1 μM, HOXB4-WT 0 μM, marker for cell viability", "protocol": "Control and treated cells are transferred to separate sterile 1.5-mL tubes and centrifuged for 5 minutes at 300g. The cell pellets are resuspended in appropriate buffer to lyse the cells. RNAase-free 70% ethanol is then added followed by mixing by pipetting. The lysates are transferred to an RNeasy™ Mini spin column and centrifuged 30 seconds at 13000 RPM. After several washes with appropriate buffers and centrifugation steps, the eluates are collected in sterile 1.5-mL tubes on ice, and the RNA quantity in each tube is then quantified with a spectrophotometer. For DNase treatment, 2 μg of RNA is diluted in 15 μL of RNase-free water. 1.75 μL of 10X DNase buffer and 0.75 μL of DNase is then added, followed by incubation at 37° C. for 15 minutes. For reverse transcriptase treatment, 0.88 μL of EDTA […] is added, followed by incubation at 75° C. for 5 minutes. In a PCR tube, […] of DNase-treated RNA is mixed with 4 μL of iScript™ Reverse transcription Supermix (5X) and […] of nuclease-free water. The mix is incubated in a PCR machine with the following program: 5 min at 25° C., 30 min at 42° C. and 5 min at 85° C. Newly synthesized cDNA is transferred in sterile 1.5-mL tubes and diluted in 2 μL of nuclease-free water. 18 μL per well of a qPCR machine (CFX-96™) mix is then added in a PCR plate for analysis.\nBriefly, THP-1 cells were plated at 30 000 cells/well one day before transduction. HOXB4-WT recombinant protein ([…]; Example 14.1) was co-incubated with different concentrations of His-CM18-PTD4 ([…]) and then exposed to THP-1 cells for 2.5 hours in the presence of serum. The cells were subjected to real time-PCR analysis as described in Example 14.2 to measure the mRNA levels of a target gene as a marker for HOXB4 activity, which was then normalized to the target gene mRNA levels detected in the negative control cells (no treatment), to obtain a “Fold over control” value. Total RNA levels (ng/μL) were also measured as a marker for cell viability.\nBriefly, THP-1 cells were plated at 30 000 cells/well one day before the first time course experiment. HOXB4-WT recombinant protein (1.5 μM; Example 14.1) was co-incubated with His-CM18-PTD4 (0.8 μM) and then exposed to THP-1 cells for 0, 2.5, 4, 24 or 48 hours in presence of serum. The cells were subjected to real time-PCR analysis as described in Example 14.2 to measure mRNA levels of a target gene as a marker for HOXB4 activity, which was then normalized to the target gene mRNA levels detected in the negative control cells (no treatment), to obtain a “Fold over control” value. Total RNA levels (ng/μL) were also measured as a marker for cell viability.\nBriefly, THP-1 cells were plated at 30 000 cells/well one day before the first time course experiment. HOXB4-WT recombinant protein (0.3 μM; Example 14.1) was co-incubated with His-CM18-PTD4 (0.8 μM) and then exposed to THP-1 cells for 0, 0.5, 1, 2, 2.5, 3 or 4 hours in presence of serum. The cells were subjected to real time-PCR analysis as described in Example 14.2 to measure mRNA levels of a target gene as a marker for HOXB4 activity, which was then normalized to target gene mRNA levels detected in the negative control cells (no treatment), to obtain a “Fold over control” value. Total RNA levels (ng/μL) were also measured as a marker for cell viability.\nBriefly, THP-1 cells were plated at 30 000 cells/well one day before the first time course experiment. HOXB4-WT recombinant protein (1.5 μM; Example 14.1) co-incubated with the shuttle agents His-CM18-PTD4, TAT-KALA, EB1-PTD4, His-C(LLKK)3C-PTD4 and His-CM18-PTD4-His at 0.8 μM, and then exposed to THP-1 cells for 2.5 hours in presence of serum. The cells were subjected to real time-PCR analysis as described in Example 14.2 to measure mRNA levels of a target gene as a marker for HOXB4 activity, which was then normalized to target gene mRNA levels detected in the negative control cells (no treatment), to obtain a “Fold over control” value. […]"}, "in vitro [1]": {"assay": "in vitro", "conditions": "human, HeLa cells; for viability: Cell viability (%) (±St Dev.; n = 3)"}, "in vitro [2]": {"assay": "in vitro", "conditions": "human, HeLa cells"}, "in vitro [3]": {"assay": "in vitro", "conditions": "human, HCC-78 cells"}, "in vitro [4]": {"assay": "in vitro", "conditions": "human, THP-1 cells", "experimental": "One day before the transduction assay was performed, cells in exponential growth phase were harvested and plated in a 96-well plate (20,000 cells per well). The cells were incubated overnight in appropriate growth media containing FBS (see Example 1). The next day, in separate sterile 1.5 mL tubes, cargo protein at the indicated concentration was pre-mixed (pre-incubated) for 1 or 10 min (depending on the protocol) at 37° C. with the peptide(s) to be tested shuttle agents (0.5 to 5 μM) in 50 μL of fresh medium without serum (unless otherwise specified). The media in wells was removed and the cells were washed three times with freshly prepared phosphate buffered saline (PBS) previously warmed at 37° C. The cells were incubated with the cargo protein/shuttle agent mixture at 37° C. for the indicated time (e.g., 1, 5 or 60 min). After the incubation, the cells were quickly washed three times with freshly prepared PBS and/or heparin (0.5 mg/mL) previously warmed at 37° C. The washes with heparin were required for human THP-1 blood cells to avoid undesired cell membrane-bound protein background in subsequent analyses (microscopy and flow cytometry). The cells were finally incubated in 50 μL of fresh medium with serum at 37° C. before analysis.\nOne day before the transduction assay was performed, suspension cells in exponential growth phase were harvested and plated in a 96-well plate (20,000 cells per well). The cells were incubated overnight in appropriate growth media containing serum (see Example 1). The next day, in separate sterile 1.5-mL tubes, peptides were diluted in sterile distilled water at room temperature (if the cargo is or comprised a nucleic acid, nuclease-free water was used). Cargo protein(s) were then added to the peptides and, if necessary, sterile PBS or cell culture medium (serum-free) was added to obtain the desired concentrations of shuttle agent and cargo in a sufficient final volume to resuspend the cells (e.g., 10 to 100 μL per well in a 96-well plate). The shuttle agent/peptide was then immediately used for experiments. At least three controls were included for each experiment, including: (1) peptide alone (e.g., at highest concentration tested); (2) cargo alone; and (3) without any cargo or shuttle agent. The cells were centrifuged for 2 minutes at 400g, the medium was then removed and the cells were resuspended in PBS previously warmed at 37° C. The cells were centrifuged again 2 minutes at 400g, the PBS removed, and the cells were resuspended with the cargo protein/peptide mixture at 37° C. for the desired length of time. After that, 200 μL of complete medium was added directly on the cells. Cells were centrifuged for 2 minutes at 400g and the medium was removed. The pellet was resuspended and washed in 200 μL of PBS previously warmed at 37° C. After another centrifugation, the PBS was removed and the cells were resuspended in 50 μL of trypsin-EDTA solution for 2 min. 200 of complete medium was directly added and cells were centrifuged for 2 minutes at 400g. The medium was removed and the cells were resuspended in 200 μL of complete medium.\nThe cells incubated in 50 μL of fresh medium were directly observed by microscopy (Bright-field and fluorescence) at different power fields (4× to 40×). The cells were observed using a CoolSNAP-PRO™ camera (Series A02D874021) and images were acquired using the Image-Proplus™ software.\nThe fluorescence of GFP was quantified using flow cytometry (Accuri C6, Becton, Dickinson and Company (BD))."}, "in vitro [5]": {"assay": "in vitro", "conditions": "human, NCI-H196 cells"}, "HeLa cells [6]": {"system": "HeLa cells", "conditions": "human, 10 s, 50 µM"}, "HeLa cells [7]": {"system": "HeLa cells", "assay": "Plasmid DNA (pEGFP-C1) transfection by peptides (% cells with GFP signal, cell viability)", "conditions": "DNA transfection in HeLa cells using peptides; pEGFP-C1 plasmid"}, "[8]": {"conditions": "Cell viability (%) (±St. Dev.; n = 3)"}},
  "note": "Ends that are not written are not given here.",
  "data": [
    {"substance": "HOXB4-WT alone", "values": [
      {"measurement": "Fold over control (mean ± St. Dev)", "setting": "THP-1 cells; HOXB4-WT alone 1.5 μM, no peptide, target gene mRNA by real time-PCR", "value": "2.5 ± 0.2"}
    ]},
    {"substance": "KWKLARAFARAIKKLGGSGGGSYARALRRQARTG [FSD10 alone]", "values": [
      {"measurement": "Total RNA in ng/μL (mean ± St. Dev)", "setting": "THP-1 cells", "value": "181 ± 10.7", "unit": "ng/µL"}
    ]},
    {"substance": "KWKLARAFARAIKKLGGSGGGSYARALRRQARTG [FSD10]", "values": [
      {"measurement": "viability", "setting": "in vitro [1]", "value": "79.8 ± 4.73", "unit": "%"},
      {"measurement": "viability at 1 min, 8 µM", "setting": "in vitro [1]; [8]", "value": "83.4 ± 6.38", "unit": "%"},
      {"measurement": "viability at 1 min, 10 µM", "setting": "in vitro [1]; [8]", "value": "79.8 ± 6.37", "unit": "%"},
      {"measurement": "viability at 2 min, 5 µM", "setting": "in vitro [1]; [8]", "value": "55.6 ± 4.28", "unit": "%"},
      {"measurement": "viability", "setting": "in vitro [2]", "value": "72.4 ± 8.61", "unit": "%"},
      {"measurement": "viability at 1 min, 8 µM", "setting": "in vitro [3]", "value": "76.1 ± 6.19", "unit": "%"},
      {"measurement": "viability at 1 min, 10 µM", "setting": "in vitro [3]", "value": "63.1 ± 5.27", "unit": "%"},
      {"measurement": "viability at 2 min, 5 µM", "setting": "in vitro [3]", "value": "83.1 ± 5.99", "unit": "%"},
      {"measurement": "viability at 0.5 min, 2 µM", "setting": "in vitro [4]", "value": "96.3 ± 2.16", "unit": "%"},
      {"measurement": "viability at 1 min, 1 µM", "setting": "in vitro [4]", "value": "93.5 ± 5.64", "unit": "%"},
      {"measurement": "viability at 1 min, 2 µM", "setting": "in vitro [4]", "value": "85.6 ± 5.22", "unit": "%"},
      {"measurement": "viability at 0.025 h, 1 µM", "setting": "in vitro [4]", "value": "78.4 ± 6.15", "unit": "%"},
      {"measurement": "viability at 1 min, 8 µM", "setting": "in vitro [5]", "value": "81 ± 8.02", "unit": "%"},
      {"measurement": "viability at 1 min, 10 µM", "setting": "in vitro [5]", "value": "85.4 ± 7.66", "unit": "%"},
      {"measurement": "viability at 2 min, 5 µM", "setting": "in vitro [5]", "value": "83.2 ± 7.51", "unit": "%"}
    ]},
    {"substance": "KWKLARAFARAIKKLYARALRRQARTG [FSD12]", "values": [
      {"measurement": "viability", "setting": "in vitro [1]", "value": "67.8 ± 4.83", "unit": "%"},
      {"measurement": "viability", "setting": "in vitro [2]", "value": "58.6 ± 2.07", "unit": "%"},
      {"measurement": "viability at 1 min, 8 µM", "setting": "in vitro [3]", "value": "66.3 ± 6.03", "unit": "%"},
      {"measurement": "viability at 1 min, 10 µM", "setting": "in vitro [3]", "value": "46.5 ± 4.18", "unit": "%"},
      {"measurement": "viability at 2 min, 5 µM", "setting": "in vitro [3]", "value": "75.1 ± 6.31", "unit": "%"},
      {"measurement": "viability at 1 min, 8 µM", "setting": "in vitro [5]", "value": "71.9 ± 6.44", "unit": "%"},
      {"measurement": "viability at 1 min, 10 µM", "setting": "in vitro [5]", "value": "72.5 ± 6.29", "unit": "%"},
      {"measurement": "viability at 2 min, 5 µM", "setting": "in vitro [5]", "value": "76.5 ± 6.37", "unit": "%"}
    ]},
    {"substance": "LLKLWSRLLKLWTQGGSGGGSGRRLKAKRAKA [FSD18 alone]", "values": [
      {"measurement": "Total RNA in ng/μL (mean ± St. Dev)", "setting": "THP-1 cells", "value": "157 ± 3.9", "unit": "ng/µL"}
    ]},
    {"substance": "RRLSYSRRRFWEAKLAKALAKALAKHLAKALAKALKACEA [SynB3-KALA]", "values": [
      {"measurement": "Cell viability (%) (±St. Dev.; n = 3)", "setting": "HeLa cells [6]", "value": "91.1 ± 0.82", "unit": "%"}
    ]},
    {"substance": "RRRRRRRRRWEAKLAKALAKALAKHLAKALAKALKACEA [9Arg-KALA]", "values": [
      {"measurement": "Cell viability (%) (±St. Dev.; n = 3)", "setting": "HeLa cells [6]", "value": "62.8 ± 5.11", "unit": "%"}
    ]},
    {"substance": "YARAAARQARA [PTD4, reference compound]", "values": [
      {"measurement": "viability", "setting": "in vitro [2]", "value": "98.2 ± 0.69", "unit": "%"},
      {"measurement": "Cell viability (%) (±St. Dev.; n = 3)", "setting": "HeLa cells [6]", "value": "94 ± 4.5", "unit": "%"}
    ]},
    {"substance": "YGRKKRRQRRRCKKALLALALHHLAHLALHLALALKKA [TAT-LAH4]", "values": [
      {"measurement": "Mean % cells with GFP signal (±St. Dev.; n = 3)", "setting": "HeLa cells [7]", "value": "0.15 ± 0.00", "unit": "%"},
      {"measurement": "viability", "setting": "in vitro [2]", "value": "96.2 ± 2.7", "unit": "%"}
    ]}
  ]
}
